Data set [1] concerns breast cancer cell line MX-1. Kind of data set: MX-1 cell line proliferation assay. The conditions noted are these: Homo sapiens, MX1, 72 h; MX-1 cells, 3-day proliferation, Cell Titer Glo; read-out: Cellular proliferation: EC50. The data set is classed as cell-based, human.
A short description of data set [2]: Mouse liver microsome stability assay. The data set is classed as in vitro ADME. The conditions noted are these: male, CD1, mouse, microsomes, pH 7.4.
Data set [3] is described as follows: Rat liver microsome stability assay. The data set is classed as in vitro ADME. The conditions noted are these: rat liver microsomes (male Sprague-Dawley), 0.5 μM test compound, 0.25 mg/mL microsomal protein, pH 7.4, 37° C.; read-out: Stability in rat liver microsomes (t1/2 in minutes).
Data set [4] in a line: Human liver microsome stability assay. Type of data set: in vitro ADME. The following applies: both sexes, human, microsomes, pH 7.4.
Data set [5] deals with human BRD4 first bromodomain (BDI_K57-E168) (Homo sapiens (Human), UniProt O60885). Kind of data set: TR-FRET bromodomain binding assay, BRD4 first bromodomain.
Data set [6] concerns the target human BRD4 second bromodomain (BDII_E352-M457) (Homo sapiens (Human), UniProt O60885). The experiment in a line: TR-FRET bromodomain binding assay, BRD4 second bromodomain.

Bounds are passed on as bounds.

As for `COC(=O)Cc1ccc(OCc2ccccc2)c(-c2cn(C)c(=O)c3[nH]ccc23)c1` [Example 45, methyl [4-(benzyloxy)-3-(6-methyl-7-oxo-6,7-dihydro-1H-pyrrolo[2,3-c]pyridin-4-yl)phenyl]acetate], the EC50 in data set [1] came out at 233 nM. Also, the half-life at 0.5 μM came to 3 min in data set [2] and 2 min in data set [3].
Regarding `Cn1cc(-c2cc(CS(C)(=O)=O)ccc2Nc2ccc(F)cc2)c2cc[nH]c2c1=O` [Example 335, 4-{2-[(4-fluorophenyl)amino]-5-[(methylsulfonyl)methyl]phenyl}-6-methyl-1,6-dihydro-7H-pyrrolo[2,3-c]pyridin-7-one], the EC50 in data set [1] was 22.4 nM. Besides, the half-life at 0.5 μM amounted to 54 min in data set [2], 34 min in data set [3] and 35 min in data set [4].
The matching figures for `CCS(=O)(=O)c1ccc(OCC2CC2)c(-c2cn(C)c(=O)c3[nH]ncc23)c1` [Example 323, 4-[2-(cyclopropylmethoxy)-5-(ethylsulfonyl)phenyl]-6-methyl-1,6-dihydro-7H-pyrazolo[3,4-c]pyridin-7-one]: 37.7 nM, above 120 min, above 120 min and above 120 min.
`Cn1cc(-c2cc(NS(=O)(=O)CC(F)(F)F)ccc2OC2CCCOC2)c2cc[nH]c2c1=O` (stereo not drawn) [Example 107, 2,2,2-trifluoro-N-[3-(6-methyl-7-oxo-6,7-dihydro-1H-pyrrolo[2,3-c]pyridin-4-yl)-4-(tetrahydro-2H-pyran-3-yloxy)phenyl]ethanesulfonamide]: the EC50 in data set [1] was 31 nM. Besides, the half-life at 0.5 μM in data set [2] was determined as 8 min; in data set [3], 16 min; in data set [4], 71 min.
The matching figures for `CCCS(=O)(=O)Nc1ccc(OC2CCC(F)(F)CC2)c(-c2cn(C)c(=O)c3[nH]ccc23)c1` [Example 102, N-{4-[(4,4-difluorocyclohexyl)oxy]-3-(6-methyl-7-oxo-6,7-dihydro-1H-pyrrolo[2,3-c]pyridin-4-yl)phenyl}propane-1-sulfonamide]: 61.5 nM, 8 min, 3 min and 36 min.
`Cn1cc(-c2cc(C(=O)N3CCC(NC(=O)OC(C)(C)C)CC3)ccc2Oc2ccc(F)cc2F)c2cc[nH]c2c1=O` [Example 135, tert-butyl {1-[4-(2,4-difluorophenoxy)-3-(6-methyl-7-oxo-6,7-dihydro-1H-pyrrolo[2,3-c]pyridin-4-yl)benzoyl]piperidin-4-yl}carbamate]: the results for the Ki in data set [5] and in data set [6] were 274 nM and 77.4 nM, respectively. Besides, the results for the half-life at 0.5 μM in data set [2], in data set [3] and in data set [4] were 5 min, 24 min and 8 min, respectively.
Take `Cn1cc(-c2ccccc2-c2ccccc2)c2cc[nH]c2c1=O` [Example 196, 4-(biphenyl-2-yl)-6-methyl-1,6-dihydro-7H-pyrrolo[2,3-c]pyridin-7-one]: the figures for the Ki in data set [5] and in data set [6] were 9500 nM and 479 nM, respectively. The half-life at 0.5 μM in data set [2] was found to be 3 min; in data set [3], 5 min; in data set [4], 59 min.
The matching figures for `Cn1cc(-c2cc(S(C)(=O)=O)ccc2Oc2ccc(F)c(F)c2)c2cc[nH]c2c1=O` [Example 174, 4-[2-(3,4-difluorophenoxy)-5-(methylsulfonyl)phenyl]-6-methyl-1,6-dihydro-7H-pyrrolo[2,3-c]pyridin-7-one]: 19.2 nM, 14.3 nM, 14 min, 46 min and 40 min.
For `Cn1cc(-c2cc(CC(=O)O)ccc2OCc2ccccc2)c2cc[nH]c2c1=O` [Example 35, [4-(benzyloxy)-3-(6-methyl-7-oxo-6,7-dihydro-1H-pyrrolo[2,3-c]pyridin-4-yl)phenyl]acetic acid], the Ki amounted to 661 nM in data set [5] and 1140 nM in data set [6]. Also, the half-life at 0.5 μM in data set [2] is 42 min; in data set [3], above 120 min; in data set [4], 37 min.
